For test [1], the target named is T1, R8 (Azospirillum baldaniorum, UniProt A0A9P1JTZ6).
T1 sequence (A0A9P1JTZ6 19-310): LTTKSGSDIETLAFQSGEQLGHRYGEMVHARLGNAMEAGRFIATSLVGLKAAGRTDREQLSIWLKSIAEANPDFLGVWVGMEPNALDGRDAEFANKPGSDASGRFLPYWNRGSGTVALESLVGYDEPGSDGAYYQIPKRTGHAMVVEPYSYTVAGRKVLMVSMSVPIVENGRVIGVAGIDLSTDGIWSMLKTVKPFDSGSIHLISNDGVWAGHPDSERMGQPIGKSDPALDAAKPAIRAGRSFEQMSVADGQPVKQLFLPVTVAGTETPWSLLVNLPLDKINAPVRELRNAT
The test is described as follows: ITC. The following applies: one binding site model.

The target in test [2] is T2, R5 (Williamwhitmania taraxaci, UniProt A0A1G6J2J7).
T2 sequence (A0A1G6J2J7 34-316 limits assumed): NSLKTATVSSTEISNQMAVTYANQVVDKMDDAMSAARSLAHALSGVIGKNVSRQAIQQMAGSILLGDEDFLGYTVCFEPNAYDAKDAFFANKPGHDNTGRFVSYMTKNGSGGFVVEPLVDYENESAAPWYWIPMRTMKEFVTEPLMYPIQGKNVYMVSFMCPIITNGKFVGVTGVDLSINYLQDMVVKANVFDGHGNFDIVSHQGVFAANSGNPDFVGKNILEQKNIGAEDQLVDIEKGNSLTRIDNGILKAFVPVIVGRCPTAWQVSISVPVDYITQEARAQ
The test is described as follows: ITC. The class given is binding.

Test [3] has as its target T3, R7 (Peptoclostridium litorale, UniProt A0A069RI07).
T3 sequence (A0A069RI07 38-318 limits assumed): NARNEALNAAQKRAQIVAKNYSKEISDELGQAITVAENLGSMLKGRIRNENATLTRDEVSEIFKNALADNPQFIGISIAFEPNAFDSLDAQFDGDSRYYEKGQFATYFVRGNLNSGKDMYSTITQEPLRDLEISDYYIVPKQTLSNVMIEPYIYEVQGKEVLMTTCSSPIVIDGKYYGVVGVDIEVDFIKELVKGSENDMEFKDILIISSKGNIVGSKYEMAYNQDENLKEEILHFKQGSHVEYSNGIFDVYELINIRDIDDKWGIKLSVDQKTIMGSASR
The test is described as follows: ITC. The class given is binding.

Test [4] concerns the target T4, R1 (Methanosarcina mazei, UniProt Q8PSW1).
T4 sequence (Q8PSW1 32-312): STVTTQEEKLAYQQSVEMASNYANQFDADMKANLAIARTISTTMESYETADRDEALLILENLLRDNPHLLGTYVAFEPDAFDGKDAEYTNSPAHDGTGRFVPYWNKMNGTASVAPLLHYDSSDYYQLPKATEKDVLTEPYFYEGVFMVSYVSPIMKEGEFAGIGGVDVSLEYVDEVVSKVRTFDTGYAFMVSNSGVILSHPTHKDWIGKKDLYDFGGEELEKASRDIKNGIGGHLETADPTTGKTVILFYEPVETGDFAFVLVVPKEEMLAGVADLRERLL
The test is described as follows: ITC. The class given is binding.

The target of test [5] is R3. The test is described as follows: ITC. More on the design: species or system Desulfovibrio inopinatus. The following applies: read-out: KD (uM) / Polyamine / Ethylenediamine; one binding site model.
The target in test [6] is PacA-LBD (Pectobacterium atrosepticum, UniProt Q6D515). The test is described as follows: biochemical.
Test [7] addresses R6 (Oleiharenicola lentus, UniProt A0A4Q1C8G9). The test is described as follows: biochemical.

Like-named read-outs stand apart in the source and are kept apart here.

Sequence of R6 (A0A4Q1C8G9 35-324 limits assumed): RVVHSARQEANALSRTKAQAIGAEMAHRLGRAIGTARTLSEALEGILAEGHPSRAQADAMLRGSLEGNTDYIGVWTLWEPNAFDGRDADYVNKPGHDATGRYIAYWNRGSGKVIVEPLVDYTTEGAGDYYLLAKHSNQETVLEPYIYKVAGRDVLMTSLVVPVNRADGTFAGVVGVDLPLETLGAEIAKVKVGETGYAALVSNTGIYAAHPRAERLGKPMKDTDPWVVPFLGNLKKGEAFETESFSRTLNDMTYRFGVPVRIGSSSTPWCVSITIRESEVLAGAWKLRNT
Sequence of PacA-LBD (Q6D515 1-271): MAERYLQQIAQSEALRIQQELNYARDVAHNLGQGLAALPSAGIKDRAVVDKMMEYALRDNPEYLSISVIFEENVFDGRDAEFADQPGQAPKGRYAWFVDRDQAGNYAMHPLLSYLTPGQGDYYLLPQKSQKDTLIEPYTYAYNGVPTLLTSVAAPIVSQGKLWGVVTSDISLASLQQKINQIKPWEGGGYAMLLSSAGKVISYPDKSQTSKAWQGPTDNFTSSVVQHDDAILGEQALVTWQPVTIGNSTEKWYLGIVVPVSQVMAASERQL

Consider `C[N+](C)(C)CCO` [Choline], for which the Kd is 183 ± 4 µM in test [1] (read-out: KD (uM) / Quaternary amines / Choline) and 3.6 ± 0.1 µM in test [2].
Turning to `CN` [Methylamine], the Kd in test [3] amounted to 16.6 ± 2 µM; in test [1] (read-out: KD (uM) / Methyl-/ethyl-/ethanol amines^* / Methylamine) it was 25.1 ± 3 µM; in test [4], 35.1 ± 3 µM.
In the case of `NCCN` [Ethylenediamine], the Kd in test [3] is 12.3 ± 1 µM; in test [5] it was 29.6 ± 3 µM.
For the compound `CNC` [Dimethylamine], the results for the Kd in test [3], in test [1] (read-out: KD (uM) / Methyl-/ethyl-/ethanol amines^* / Dimethylamine) and in test [4] were 5.3 ± 0.4 µM, 5.8 ± 1 µM and 0.53 ± 0.02 µM, respectively.
`CN(C)C` [Trimethylamine]: the Kd worked out at 113 ± 6 µM in test [6]; 151 ± 4 µM in test [7]; 24 ± 4 µM in test [1] (read-out: KD (uM) / Methyl-/ethyl-/ethanol amines^* / Trimethylamine); 10 ± 0.4 µM in test [4]; 1.2 ± 0.1 µM in test [2].

Values taken from paper PMC10589655 (Proceedings of the National Academy of Sciences of the …, 2023).
